# Results: US20120208776A1 (priority 2002, published 2012)
# “And” between values parts separate entries of the source, which are not always exact repeats. Equal values may be shown once. Read-outs that look alike come from different tables or passages of the source.
# Legend:
# [1] = target: T1, Na^+-K^+-ATPase; experiment: Enzymatic assay of adenosine 5′-triphosphatase; type: biochemical; conditions: read-out: IC50 (50% inhibition of Na^+-K^+-ATPase activity); purified enzyme, in vitro
# T1 construct: Combination index; actein (μM); Combination index; actein; ATPase activity; other: actein 0.8 μM alone; other: digitox
# Method: Enzymatic assay of adenosine 5′-triphosphatase. The enzymatic assay of ATPase (adenosine 5′-triphosphatase, EC 3.6.1.3) followed the Sigma Prod. […] [P] was determined by the Taussky-Shorr method.
# [2] = test system: MDA-MB-453 cells; experiment: Western-blot analysis; type: cell-based, human; conditions: for IκB band intensity relative to β-actin / IκκB band intensity relative to β-actin / PPAR-γ band intensity relative to β-actin / p-Her2 level (WB) / cyclin D1 band intensity relative to β-actin: MDA-MB-453; for increase in level of p-Src: serum-starved MDA-MB-453, 80 μg/ml, 30 min
# Method: Cells were treated for increasing times with approximately the IC50 concentration, or twice the IC50 concentration, of actein. The cells were harvested, washed with PBS, and sonicated in extraction buffer according to the procedure of Han et al. (Han et al., Stable overexpression of cyclin D1 in a human mammary epithelial cell line prolongs the S-phase, and inhibits growth. Oncogene, 10:953-61, 1995). The lysates were subjected to electrophoresis on a 10% or 12.5% SDS-polyacrylamide gel, and then transferred to a polyvinylidene difluoride (PVDF) membrane. The membrane was blocked with milk protein, and incubated with a solution containing the primary antibody against the following: cyclin D1 (Upstate Biotechnology, Lake Placid, N.Y.), p21^cip1 (Oncogene Research Products, Darmstadt, Germany), ppRb (ser 780, Medical and Biological Laboratories, Nagoya, Japan), cdk4 (Upstate Biotechnology, Lake Placid, N.Y.), EGFR (clone-74, Transduction Laboratories, Lexington, Ky.), p-EGFR (phospho (Y1173)-EGFR) (Cell Signaling, Beverly, Mass.), actin (Sigma, St. Louis, Mo.), Her-2/neu (Cell Signaling, Beverly, Mass.), or phospho-(Y1248)-Her-2/neu (Cell Signaling, Beverly, Mass.)), IκB (Sant Cruz Biotechnolgy, Santa Cruz, Calif.), IκκB (Sigma, St. Louis, Mo.) and PPARγ (Santa Cruz biotechnology, Santa Cruz, Calif.) (Masuda et al., Epigallocatechin-3-gallate inhibits activation of HER-2/neu and downstream signaling pathways in human head and neck and breast carcinoma cells. Clin. Cancer Res., 9: 3486-91, 2003). The membrane was washed, and incubated with horseradish peroxidase conjugated secondary antibody.
# Protein bands were visualized with the ECL-enhanced chemiluminescence system, according to the manufacturer's directions (Amersham Pharmacia Biotech) (Sgambato et al., Overexpression of p27 (Kip1) inhibits the growth of both normal and transformed human mammary epithelial cells. Cancer Research, 58:3448-54, 1998). The staining intensities of the visualized blots were quantified using NIH image software. For each protein, the relative band intensities were determined by comparing treated samples with untreated controls. These values were then normalized, using β-actin as an internal control.
# Western blot analysis. […] To assay activation of p-Src, cells were allowed to attach for 24 h, incubated in media without serum for 24 h; the medium was replaced with media without serum with DMSO, actein or digtioxin.
# Western blot analysis was performed as previously described. […] The membrane was incubated with the primary antibodies, cyclin D1 (Santa Cruz Biotechnology; Santa Cruz, Calif.), p-Src, Akt, p-Akt, ERK2 or p-Erk2 (Cell signaling, Beverly, Mass.); β-actin was used as a loading control.
# Western blot analysis was performed as described previously.
# [3] = test system: MCF7 cells; experiment: MTT assay, 96 hours; type: cell-based, human
# [4] = test system: BT474 cells; experiment: Cell proliferation, cell count (Coulter Counter); type: cell-based; conditions: Homo sapiens
# [5] = test system: ERK2 in MDA-MB-453 cells; experiment: RNAi-mediated gene knockdown of ERK2 (MAPK1), growth inhibition; type: cell-based, human; conditions: for inhibition at 20 µg/mL: Homo sapiens, MDA-MB-453, 48 h, actein 20 μg/ml, 48 h, read-out: percent growth inhibition; for cell proliferation: digitoxin 0.4 μg/ml, 24 hours
# Method: RNAi-mediated gene knockdown. To test the functional relevance of ERK2 (p42/44MAPK pathway), the growth inhibitory effects of actein on MDA-MB-453 cells using the model system RNAi-mediated gene knockdown was examined. Cells were pretreated with siRNA to ERK2 (Hs/Mm MAPK1 siRNA) (Qiagen, Valencia, Calif.) for 24 h, then treated with actein at 20 μg/ml for 48 h, and the percent surviving cells was assayed. Western blot analysis was performed to confirm the ERK2 knockdown.
# [6] = test system: MDA-MB-453 cells; experiment: Cell proliferation, cell count (Coulter Counter); conditions: Homo sapiens, MDA-MB-453, 96 h
# Method: For the cell count assay, breast cancer cells were seeded, in triplicate, at 2×10^4 cells per well, in 24- or 96-well plates.
# (§1) For the Coulter counter assay, cells were seeded at 2×10^4 cells per well in 24 well plates (0.875 cm diameter) as described previously. […] Control and treated cells were compared using the student's t-test (p<0.05). For cell cycle analysis the cells were plated (3×10^5) onto 6 cm dishes and allowed to attach for 24 hours. […] After 24 hours the cells were analyzed by DNA flow cytometry, as described previously.
# [7] = test system: HCC1569 cells; experiment: MTT assay, 96 hours; type: cell-based; conditions: Homo sapiens
# [8] = test system: MDA-MB-453 cells; experiment: MTT assay, 96 hours; type: cell-based, human; conditions: for IC50: Homo sapiens, MTT, 96 h
# Method: as §1
# [9] = test system: MDA-MB-453 cells; experiment: Cell-cycle analysis by DNA flow cytometry; type: cell-based, human; conditions: for Sub G1 (%) / G1 (%) / G2/M (%) / S (%): 48 hrs; for G1 / G2 / S / SubG1: 24 hours
# Method: Synchrony: To synchronize the cells, 3×10^5 cells were plated onto 10 cm dishes and grown for 2 days in DMEM supplemented with 10% fetal bovine serum.
# After incubation for 1-3 days, the supernatant was collected, and the cells were trypsinized, collected, and washed with phosphate buffered saline (PBS) containing 5% FBS. Cell pellets were re-suspended in 1 ml of PBS plus 5% FBS. Thereafter, 5 ml of 70% ethanol were added drop-wise, while vortexing the tube, and the mixture was stored at 4° C. Cells were centrifuged, washed with PBS plus 5% FBS, and re-suspended in 400 μl of propidium iodide (0.1 mg/ml) (Sigma Chemical Co.). 400 μl (2 mg/ml) of RNase (Sigma Chemical Co.) were added, and the cells were incubated in the dark at room temperature for 30 min.
compound,measurement,setting,value
CC(=O)O[C@@H]1C[C@@]23C[C@@]24CC[C@H](O[C@@H]2OC[C@@H](O)[C@H](O)[C@H]2O)C(C)(C)[C@@H]4CC[C@H]3[C@]2(C)C[C@@H]3O[C@]4(C[C@@H](C)[C@@H]3[C@@]12C)O[C@H](O)[C@@]1(C)O[C@@H]41 [actein],IC50,[1],11.2 µM and 16 µM
same,IκB band intensity relative to β-actin,"[2]; 3 h, 20 μg/ml",1.2 fold
same,IκκB band intensity relative to β-actin,"[2]; 3 h, 20 μg/ml",1.79 fold
same,PPAR-γ band intensity relative to β-actin,"[2]; 3 h, 20 μg/ml",1.39 fold
same,p-Her2 level (WB),"[2]; 3 h, 20 μg/ml",0.71 fold
same,IκB band intensity relative to β-actin,"[2]; 3 h, 40 μg/ml",1.09 fold
same,IκκB band intensity relative to β-actin,"[2]; 3 h, 40 μg/ml",1.78 fold
same,PPAR-γ band intensity relative to β-actin,"[2]; 3 h, 40 μg/ml",0.93 fold and 0.92 fold
same,cyclin D1 band intensity relative to β-actin,"[2]; 3 h, 40 μg/ml",0.93 fold
same,p-Her2 level (WB),"[2]; 3 h, 40 μg/ml",0.86 fold
same,IκκB band intensity relative to β-actin,"[2]; 10 h, 20 μg/ml",0.48 fold
same,IκκB band intensity relative to β-actin,"[2]; 10 h, 40 μg/ml",0.59 fold
same,IκB band intensity relative to β-actin,"[2]; 24 h, 20 μg/ml",0.81 fold
same,IκκB band intensity relative to β-actin,"[2]; 24 h, 20 μg/ml",1.06 fold
same,PPAR-γ band intensity relative to β-actin,"[2]; 24 h, 20 μg/ml",1.3 fold
same,cyclin D1 band intensity relative to β-actin,"[2]; 24 h, 20 μg/ml",1.3 fold
same,p-Her2 level (WB),"[2]; 24 h, 20 μg/ml",0.81 fold
same,IκB band intensity relative to β-actin,"[2]; 24 h, 40 μg/ml",0.53 fold
same,IκκB band intensity relative to β-actin,"[2]; 24 h, 40 μg/ml",0.95 fold
same,PPAR-γ band intensity relative to β-actin,"[2]; 24 h, 40 μg/ml",0.67 fold
same,cyclin D1 band intensity relative to β-actin,"[2]; 24 h, 40 μg/ml",0.44 fold
same,p-Her2 level (WB),"[2]; 24 h, 40 μg/ml",0.53 fold
same,increase in level of p-Src,[2],1.5 fold
same,IC50,"[3]; Homo sapiens, MCF7, unit inferred, read-out: IC50",20.7 µM
same,IC50,"[4]; BT-474, BT474, unit inferred, read-out: IC50",23.6 µM
same,inhibition at 20 µg/mL,[5]; ERK2 siRNA,79.6%
same,inhibition at 20 µg/mL,[5]; control siRNA,100%
same,IC50,[6],~8 µg/mL
same,IC50,"[7]; unit inferred, read-out: IC50",25 µM
same,amplification: IC50 ATPase inhibition / IC50 growth inhibition,[8],about 2 fold
same,IC50,[8]; read-out: IC50,~5 µg/mL and ~7.4 µM
same,Sub G1 (%),"[9]; (a) DMEM + […] FBS 48 hrs, then actein 20 μg/ml",1.8%
same,G1 (%),"[9]; (a) […] FBS, actein 20 μg/ml",79.6%
same,G2/M (%),"[9]; (a) […] FBS, actein 20 μg/ml",10.0%
same,S (%),"[9]; (a) […] FBS, actein 20 μg/ml",8.5%
same,G1 (%),"[9]; (a) […] FBS, actein 40 μg/ml",83.8%
same,G2/M (%),"[9]; (a) […] FBS, actein 40 μg/ml",9.0%
same,S (%),"[9]; (a) […] FBS, actein 40 μg/ml",4.9%
same,Sub G1 (%),"[9]; (a) […] FBS, actein 40 μg/ml",2.2%
same,G1 (%),[9]; (b) Actein 2 μg/mL,69.8%
same,G2/M (%),[9]; (b) Actein 2 μg/mL,18.6%
same,S (%),[9]; (b) Actein 2 μg/mL,11.0%
same,Sub G1 (%),[9]; (b) Actein 2 μg/mL,0.9%
same,G1 (%),[9]; (b) Actein 20 μg/mL,70.8%
same,G2/M (%),[9]; (b) Actein 20 μg/mL,18.2%
same,S (%),[9]; (b) Actein 20 μg/mL,9.7%
same,Sub G1 (%),[9]; (b) Actein 20 μg/mL,1.6%
same,G1 (%),[9]; (c) Actein 20 μg/mL,59.2%
same,G2/M (%),[9]; (c) Actein 20 μg/mL,29.5%
same,S (%),[9]; (c) Actein 20 μg/mL,8.6%
same,Sub G1 (%),[9]; (c) Actein 20 μg/mL,2.7%
C[C@H]1O[C@@H](O[C@H]2[C@@H](O)C[C@H](O[C@H]3[C@@H](O)C[C@H](O[C@H]4CC[C@@]5(C)[C@H](CC[C@@H]6[C@@H]5CC[C@]5(C)[C@@H](C7=CC(=O)OC7)CC[C@]65O)C4)O[C@@H]3C)O[C@@H]2C)C[C@H](O)[C@@H]1O [digitoxin],IC50,[1],0.8 µM
same,increase in level of p-Src,[2],1.5 fold
same,IC50,"[3]; Homo sapiens, MCF7, MCF7",0.2 µg/mL
same,IC50,"[3]; Homo sapiens, MCF7, MCF7, unit inferred",0.261 µM
same,IC50,"[3]; MCF7, unit inferred",0.26 µM
same,IC50,"[4]; BT-474, BT474, Coulter counter",0.03 µg/mL and 40 nM
same,IC50,"[4]; BT-474, BT474, unit inferred",0.039 µM
same,cell proliferation,[5]; control siRNA,96.0%
same,cell proliferation,[5]; siRNA to MAPK1,76.9%
same,IC50,[6],0.04 µg/mL and 50 nM
same,IC50,[7],0.12 µM
same,IC50,"[8]; MDA-MB-453, 96 h",~0.025 µg/mL and ~33 nM
same,G1,[9]; digitoxin 0.2 μg/mL,46.50 (1.98) %
same,G2,[9]; digitoxin 0.2 μg/mL,19.05 (0.07) %
same,S,[9]; digitoxin 0.2 μg/mL,27.65 (0.64) %
same,SubG1,"[9]; digitoxin 0.2 μg/mL, SD in parentheses",6.77 (1.06) %
same,G1,[9]; digitoxin 2.0 μg/mL,41.90 (2.26) %
same,G2,[9]; digitoxin 2.0 μg/mL,32.10 (1.27) %
same,S,[9]; digitoxin 2.0 μg/mL,17.80 (0.42) %
same,SubG1,[9]; digitoxin 2.0 μg/mL,5.78 (1.02) %
